Source: patent US7439386B2, “Therapeutic substituted cyclopentanones” (Allergan, Inc., priority 2005, dated 2008)

Tests used:
[1] = tested on: Beagle dogs; experiment: Intraocular pressure in dogs (pneumatonometry); format: in vivo; details: 0.005% topical 25 μL drop, 5 day study
Procedure: (§1) Intraocular pressure studies in dogs involved pneumatonometry performed in conscious, Beagle dogs of both sexes (10-15 kg). The animals remained conscious throughout the study and were gently restrained by hand. Drugs were administered topically to one eye as a 25 μL volume drop, the other eye received 25 μL vehicle (0.1% polysorbate 80:10 mM TRIS) as a control. Proparacaine (0.1%) was used for corneal anesthesia during tonometry. Intraocular pressure was determined just before drug administration and at 2, 4 and 6 hr thereafter on each day of the 5 day study. Drug was administered immediately after the first IOP reading.

[2] = tested on: Beagle dogs; experiment: Ocular surface hyperemia in dogs; format: in vivo; details: 0.005% topical, score 0.5 trace, 1 mild, 2 moderate, 3 severe
Procedure: as §1
(§2) Ocular surface hyperemia was visually assessed and scored according to a system typically used clinically.
(§3) Ocular surface hyperemia was evaluated at the same time points as intraocular pressure measurement. It should be noted that untreated dog eyes frequently have a pink/red tone. Thus, values of trace or even mild are not necessarily out of the normal range. A similar procedure was used to determine rabbit hyperemia.

[3] = tested on: cynomolgus monkeys; experiment: Intraocular pressure in cynomolgus monkeys; format: in vivo; details: 0.005% topical, single dose
Procedure: as §1
An analogous procedure was carried out with cynomolgus monkeys with measurements at 2, 4, 6, and 24 hours after a single dose.

[4] = tested on: rabbit; experiment: Ocular surface hyperemia in rabbits; format: in vivo; details: 0.005%, score 0.5 trace, 1 mild, 2 moderate, 3 severe
Procedure: as §2, §3

[5] = target: T1, EP2 receptor (Homo sapiens, UniProt P43116); experiment: Radioligand binding, EP2 receptor; details: [3H]PGE2 competition, HEK-293 membranes
T1 construct: expressed in transfected cells; membrane fraction
Procedure: (§4) HEK-293 cells stably expressing the human or feline FP receptor, or EP1, EP2, or EP4 receptors are washed with TME buffer, scraped from the bottom of the flasks, and homogenized for 30 sec using a Brinkman PT 10/35 polytron. TME buffer is added to achieve a final 40 ml volume in the centrifuge tubes (the composition of TME is 100 mM TRIS base, 20 mM MgCl2, […]; 10N HCl is added to achieve a pH of 7.4).
(§5) The cell homogenate is centrifuged at 19000 r.p.m. for 20 min at 4° C. using a Beckman Ti-60 rotor. The resultant pellet is resuspended in TME buffer to give a final 1 mg/ml protein concentration, as determined by Biorad assay. Radioligand binding competition assays vs. [^3H—]17 phenyl PGF2α (5 nM) are performed in a 100 μl volume for 60 min. Binding reactions are started by adding plasma membrane fraction. The reaction is terminated by the addition of 4 ml ice-cold TRIS-HCl buffer and rapid filtration through glass fiber GF/B filters using a Brandel cell harvester. The filters are washed 3 times with ice-cold buffer and oven dried for one hour. Non-specific binding is determined with 10 uM unlabeled 17 phenyl PGF2α.
(§6) [^3H—] PGE2 (5 nM; specific activity 180 Ci mmol) is used as the radioligand for EP receptors. Binding studies employing EP1, EP2, EP3, EP4 are performed in duplicate in at least three separate experiments. A 200 μl assay volume is used. Incubations are for 60 min at 25° C. and are terminated by the addition of 4 ml of ice-cold 50 mM TRIS-HCl, followed by rapid filtration through Whatman GF/B filters and three additional 4 ml washes in a cell harvester (Brandel). Non-specific binding is determined with 10^−5M of unlabeled PGE2.

[6] = target: T2, hEP2/Gqs5 (Homo sapiens, UniProt P43116); experiment: FLIPR calcium signal, hEP2/Gqs5; format: cell-based; details: HEK-293(EBNA) cells, read-out: EP2 Ca2+ EC50
T2 construct: expressed in transfected cells
Procedure: (§7) HEK-293(EBNA) cells, stably expressing one type or subtype of recombinant human prostaglandin receptors (prostaglandin receptors expressed: hDP/Gqs5; hEP1; hEP2/Gqs5; hEP3A/Gqi5; hEP4/Gqs5; hFP; hIP; hTP), are cultured in 100 mm culture dishes in high-glucose DMEM medium containing 10% fetal bovine serum, 2 mM 1-glutamine, 250 μg/ml geneticin (G418) and 200 μg/ml hygromycin B as selection markers, and 100 units/ml penicillin G, 100 μg/ml streptomycin and 0.25 μg/ml amphotericin B.
(§8) Cells are seeded at a density of 5×10^4 cells per well in Biocoat® Poly-D-lysine-coated black-wall, clear-bottom 96-well plates (Becton-Dickinson) and allowed to attach overnight in an incubator at 37° C. Cells are then washed two times with HBSS-HEPES buffer (Hanks Balanced Salt Solution without bicarbonate and phenol red, 20 mM HEPES, pH 7.4) using a Denley Cellwash plate washer (Labsystems). After 45 minutes of dye-loading in the dark, using the calcium-sensitive dye Fluo-4 AM at a final concentration of 2 μM, plates are washed four times with HBSS-HEPES buffer to remove excess dye leaving 100 μl in each well. Plates are re-equilibrated to 37° C. for a few minutes.
(§9) Cells are excited with an Argon laser at 488 nm, and emission is measured through a 510-570 nm bandwidth emission filter (FLIPR™, Molecular Devices, Sunnyvale, Calif.). Drug solution is added in a 50 μl volume to each well to give the desired final concentration. The peak increase in fluorescence intensity is recorded for each well. On each plate, four wells each serve as negative (HBSS-HEPES buffer) and positive controls (standard agonists: BW245C (hDP); PGE2 (hEP1; hEP2/Gqs5; hEP3A/Gqi5; hEP4/Gqs5); PGF2α (hFP); carbacyclin ([…]); U-46619 (hTP), depending on receptor). The peak fluorescence change in each drug-containing well is then expressed relative to the controls.
(§10) Compounds are tested in a high-throughput (HTS) or concentration-response (CoRe) format. […]

[7] = target: T3, EP4 receptor (Homo sapiens, UniProt P35408); experiment: Radioligand binding, EP4 receptor; details: [3H]PGE2 competition, HEK-293 membranes
T3 construct: expressed in transfected cells; membrane fraction
Procedure: as §4, §5, §6

[8] = target: T4, hEP4/Gqs5 (Homo sapiens, UniProt P35408); experiment: FLIPR calcium signal, hEP4/Gqs5; format: cell-based; details: HEK-293(EBNA) cells, read-out: EP4 Ca2+ EC50
T4 construct: expressed in transfected cells
Procedure: as §7, §8, §9
Compounds are tested in a high-throughput (HTS) or concentration-response (CoRe) format. In the HTS format, forty-four compounds per plate are examined in duplicates at a concentration of 10^−5 M. To generate concentration-response curves, four compounds per plate are tested in duplicates in a concentration range between 10^−5 and 10^−11 M. The duplicate values are averaged. In either, HTS or CoRe format each compound is tested on at least 3 separate plates using cells from different passages to give an n≧3.

[9] = target: T5, hEP3A/Gqi5 (Homo sapiens, UniProt P43115); experiment: FLIPR calcium signal, hEP3A/Gqi5; format: cell-based; details: HEK-293(EBNA) cells, read-out: OTHER RECEPTORS Ca2+ EC50: EP3
T5 construct: expressed in transfected cells
T5 sequence (P43115 1-390): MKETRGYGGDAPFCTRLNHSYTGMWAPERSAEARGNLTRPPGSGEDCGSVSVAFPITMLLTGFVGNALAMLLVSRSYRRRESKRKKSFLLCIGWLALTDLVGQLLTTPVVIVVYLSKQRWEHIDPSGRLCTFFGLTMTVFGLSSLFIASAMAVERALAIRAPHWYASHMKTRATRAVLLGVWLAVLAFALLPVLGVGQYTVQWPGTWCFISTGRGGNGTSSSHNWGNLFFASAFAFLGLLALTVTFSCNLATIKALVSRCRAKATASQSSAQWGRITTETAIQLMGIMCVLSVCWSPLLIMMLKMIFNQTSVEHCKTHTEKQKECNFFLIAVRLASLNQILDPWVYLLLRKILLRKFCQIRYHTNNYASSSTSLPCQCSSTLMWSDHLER
Procedure: as §7, §8, §9, §10

T3 sequence (P35408 whole entry): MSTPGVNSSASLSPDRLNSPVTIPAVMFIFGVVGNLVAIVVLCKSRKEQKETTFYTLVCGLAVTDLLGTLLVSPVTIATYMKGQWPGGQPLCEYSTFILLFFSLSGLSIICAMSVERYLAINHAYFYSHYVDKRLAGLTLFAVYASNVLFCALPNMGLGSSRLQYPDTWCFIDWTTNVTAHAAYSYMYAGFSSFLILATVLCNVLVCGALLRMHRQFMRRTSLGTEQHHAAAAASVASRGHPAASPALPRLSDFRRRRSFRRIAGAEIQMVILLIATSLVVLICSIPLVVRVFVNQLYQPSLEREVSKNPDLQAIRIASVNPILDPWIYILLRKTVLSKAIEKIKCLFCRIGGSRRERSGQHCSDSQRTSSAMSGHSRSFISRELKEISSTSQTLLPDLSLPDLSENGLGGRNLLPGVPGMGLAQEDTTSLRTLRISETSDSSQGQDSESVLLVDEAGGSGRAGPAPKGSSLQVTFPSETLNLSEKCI
T4 sequence (P35408 whole entry): as above
T2 sequence (P43116 whole entry): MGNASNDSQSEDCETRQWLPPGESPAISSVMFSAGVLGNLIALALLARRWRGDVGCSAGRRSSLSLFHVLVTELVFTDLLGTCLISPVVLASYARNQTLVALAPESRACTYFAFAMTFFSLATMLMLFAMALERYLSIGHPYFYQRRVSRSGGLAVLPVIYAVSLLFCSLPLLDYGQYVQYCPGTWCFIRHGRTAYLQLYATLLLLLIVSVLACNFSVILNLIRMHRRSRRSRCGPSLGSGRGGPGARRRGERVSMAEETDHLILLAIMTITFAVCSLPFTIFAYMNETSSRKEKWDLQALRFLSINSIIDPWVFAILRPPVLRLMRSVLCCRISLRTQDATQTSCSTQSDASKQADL
T1 sequence (P43116 whole entry): as above

## CC1(C)C(=O)[C@H](C/C=C\CCCC(=O)O)[C@@H](/C=C/C(O)CCc2ccc3ccccc3c2)[C@@H]1O (stereo partly drawn)
[1]
  Dog Max ΔIOP: 2 mm Hg
[2]
  Dog Max Hyperemia: 1.3
[3]
  Monkey Max ΔIOP: 8 mm Hg
[4]
  Rabbit Max Hyperemia: 0.1

## CC1(C)C(=O)[C@H](C/C=C\CCCC(=O)O)[C@@H](/C=C/C(O)CCc2ccc3ccccc3c2)[C@@H]1O (single isomer, unassigned) [drawing 23]
[5]
  Ki: > 10 µM
[6]
  EC50: > 10 µM
[7]
  Ki: 0.014 µM
[8]
  EC50: 0.00017 µM
[9]
  EC50: 4.02 µM

## CC1(C)C(=O)[C@H](C/C=C\CCCC(=O)O)[C@@H](/C=C/C(O)CCc2ccc3ccccc3c2)[C@@H]1O (single isomer, unassigned) [drawing 24]
[5]
  Ki: 16.9 µM
[6]
  EC50: > 10 µM
[7]
  Ki: 0.111 µM
[8]
  EC50: 0.0013 µM
[9]
  EC50: 1.02 µM

## CC1(C)C(=O)[C@H](CC#CCCCC(=O)O)[C@@H](/C=C/C(O)CCc2ccc3ccccc3c2)[C@@H]1O (single isomer, unassigned) [drawing 25]
[5]
  Ki: 36.2 µM
[7]
  Ki: 1.24 µM
[8]
  EC50: 0.0163 µM
[9]
  EC50: 1.02 µM

## CC1(C)C(=O)[C@H](CC#CCCCC(=O)O)[C@@H](/C=C/C(O)CCc2ccc3ccccc3c2)[C@@H]1O (single isomer, unassigned) [drawing 26]
[6]
  EC50: > 10 µM
[7]
  Ki: 1.86 µM
[8]
  EC50: 0.008 µM
